Reference: patent publication US9718828B2 (MERCK SHARP & DOHME CORP., priority 2011, dated 2017)
Counter-ions that a name gives are not always drawn. Like-named read-outs stand apart in the source and are kept apart here.

Molecular target: hBTK (full-length BTK, 6HIS-tag cleaved) (Homo sapiens (Human), UniProt Q06187)
Experiment: BTK enzymatic activity, LANCE TR-FRET assay (Assay Method C)
Type: biochemical
Conditions: 50 pM hBTK, 25 μM ATP
[1] = LANCE TR-FRET, class 100-1000 is given as ≧100 nM-<1 μM, read-out: IC50 Btk activity values - Assay Method C

Sequence of hBTK (full-length BTK, 6HIS-tag cleaved) (Q06187 whole entry): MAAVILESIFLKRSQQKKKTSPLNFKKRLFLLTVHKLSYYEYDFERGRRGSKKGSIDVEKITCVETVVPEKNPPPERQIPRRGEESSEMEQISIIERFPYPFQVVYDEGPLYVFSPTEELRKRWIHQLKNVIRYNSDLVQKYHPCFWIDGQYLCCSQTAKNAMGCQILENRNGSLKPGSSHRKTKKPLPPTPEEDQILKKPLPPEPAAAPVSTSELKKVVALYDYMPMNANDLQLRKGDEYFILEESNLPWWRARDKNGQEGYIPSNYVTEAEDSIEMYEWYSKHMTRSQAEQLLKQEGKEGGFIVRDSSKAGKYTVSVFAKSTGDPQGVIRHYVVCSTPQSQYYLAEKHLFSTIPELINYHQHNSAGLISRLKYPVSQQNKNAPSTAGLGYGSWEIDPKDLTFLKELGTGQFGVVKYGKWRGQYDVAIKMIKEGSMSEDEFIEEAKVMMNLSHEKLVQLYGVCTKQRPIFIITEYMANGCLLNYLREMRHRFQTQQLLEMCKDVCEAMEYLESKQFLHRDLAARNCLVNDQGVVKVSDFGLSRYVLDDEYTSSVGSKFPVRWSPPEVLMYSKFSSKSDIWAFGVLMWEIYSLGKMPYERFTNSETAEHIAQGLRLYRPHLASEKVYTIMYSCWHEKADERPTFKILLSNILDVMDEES

| Compound | IC50 [1] | IC50 (Table D, Assay Method C (LANCE TR-FRET), read-out: IC50 BTK activity value) |
| --- | --- | --- |
| CC1(C(=O)N2CCC[C@@H](c3nc(-c4ccc(C(=O)Nc5ncc(C(C)(C)C)s5)cc4)c4c(N)nccn34)C2)COC1 [Example 369, 4-(8-amino-3-{(3R)-1-[(3-methyloxetan-3-yl)carbonyl]piperidin-3-yl}imidazo[1,5-a]pyrazin-1-yl)-N-(5-tert-butyl-1,3-thiazol-2-yl)benzamide] | < 10 nM | – |
| COCC(=O)N1CCC[C@@H](c2nc(-c3ccc(C(=O)Nc4cc(C(F)(F)F)ccn4)cc3)c3c(N)nccn23)C1 [Example 340, 4-{8-amino-3-[(3R)-1-(methoxyacetyl)piperidin-3-yl]imidazo[1,5-a]pyrazin-1-yl}-N-[4-(trifluoromethyl)pyridin-2-yl]benzamide] | < 10 nM | – |
| CC(C)COc1ccnc(NC(=O)c2ccc(-c3nc([C@@H]4CC[C@H](C)N(C(=O)C5(C)COC5)C4)n4ccnc(N)c34)cc2)c1 [Example 417, 4-(8-amino-3-{(3R,6S)-6-methyl-1-[(3-methyloxetan-3-yl)carbonyl]piperidin-3-yl}imidazo[1,5-a]pyrazin-1-yl)-N-[4-(2-methylpropoxy)pyridin-2-yl]benzamide] | < 10 nM | – |
| CC1(C(=O)N2CCC[C@@](O)(c3nc(-c4ccc(C(=O)Nc5cc(C(F)(F)F)ccn5)cc4)c4c(N)nccn34)C2)COC1 [Example 439, 4-(8-amino-3-{(3S)-3-hydroxy-1-[(3-methyloxetan-3-yl)carbonyl]piperidin-3-yl}imidazo[1,5-a]pyrazin-1-yl)-N-[4-(trifluoromethyl)pyridin-2-yl]benzamide] | < 10 nM | – |
| CC1(C(=O)N2CCC[C@@H](c3nc(-c4ccc(C(=O)Nc5ccc(C(F)F)cn5)cc4)c4c(N)nccn34)C2)COC1 [Example 355, 4-(8-amino-3-{(3R)-1-[(3-methyloxetan-3-yl)carbonyl]piperidin-3-yl}imidazo[1,5-a]pyrazin-1-yl)-N-[5-(difluoromethyl)pyridin-2-yl]benzamide] | < 10 nM | 1.33 nM |
| Cc1cnc(N)c2c(-c3ccc(C(=O)Nc4cc(C(F)F)ccn4)cc3F)nc([C@@H]3CC[C@H](C)N(C(=O)C4(C)COC4)C3)n12 [Example 462, 4-(8-amino-5-methyl-3-{(3R,6S)-6-methyl-1-[(3-methyloxetan-3-yl)carbonyl]piperidin-3-yl}imidazo[1,5-a]pyrazin-1-yl)-N-[4-(difluoromethyl)pyridin-2-yl]-3-fluorobenzamide] | < 10 nM | – |
| Nc1nccn2c([C@H]3CN(CCO)CCO3)nc(-c3ccc(C(=O)Nc4cc(C(F)(F)F)ccn4)cc3)c12 [Example 492, (R)-4-(8-amino-3-(4-(2-hydroxyethyl)morpholin-2-yl)imidazo[1,5-a]pyrazin-1-yl)-N-(4-(trifluoromethyl)pyridin-2-yl)benzamide] | < 10 nM | – |
| CCC(O)C(=O)N1CCC[C@@H](c2nc(-c3ccc(C(=O)Nc4cc(C(F)(F)F)ccn4)cc3)c3c(N)nccn23)C1 (stereo partly drawn) [Example 343, 4-{8-amino-3-[(3R)-1-(2-hydroxybutanoyl)piperidin-3-yl]imidazo[1,5-a]pyrazin-1-yl}-N-[4-(trifluoromethyl)pyridin-2-yl]benzamide] | < 10 nM | – |
| Cc1cnc(N)c2c(-c3ccc(C(=O)Nc4cc(C(F)(F)F)ccn4)cc3)nc([C@H]3CN(C(=O)[C@@H](C)O)CCO3)n12 [Example 544, 4-(8-amino-3-{(2R)-4-[(2R)-2-hydroxypropanoyl]morpholin-2-yl}-5-methylimidazo[1,5-a]pyrazin-1-yl)-N-[4-(trifluoromethyl)pyridin-2-yl]benzamide] | < 10 nM | – |
| COCC(=O)N1CCO[C@@H](c2nc(-c3ccc(C(=O)Nc4cc(C(F)(F)F)ccn4)cc3F)c3c(N)nccn23)C1 [Example 551, 4-{8-amino-3-[(2R)-4-(methoxyacetyl)morpholin-2-yl]imidazo[1,5-a]pyrazin-1-yl}-3-fluoro-N-[4-(trifluoromethyl)pyridin-2-yl]benzamide, TFA salt] | < 10 nM | – |
